Test systems include OVCAR-3 ovarian; MCF7 breast; NCI/ADR-RES ovarian; HCT-116 colon; HOP-62 NSCLC; SN12C renal; HT29 colon; SK-MEL-28 melanoma; OVCAR-8 ovarian; LOX IMVI melanoma.
Holding throughout (test): inhibition of tumour cell growth, NCI panel, 48 h

Structures are written as SMILES.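 Each compound was tested at five concentrations against cells in 96-well plates for 48 hours. Here, GI50 denotes the concentration required for 50% inhibition of growth. TGI marks complete inhibition of growth.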

For `C=C(C)[C@@H]1CC[C@]2(C(=O)NC3CCCCC3)CC[C@]3(C)[C@H](CC[C@@H]4[C@@]5(C)CCCNC(C)(C)[C@@H]5CC[C@]43C)[C@@H]12`, in the assay with OVCAR-3 ovarian, the GI50 is 1870 nM and the TGI is 3.57 µM.
As for `Cn1c(=O)c(-c2ccccc2)c(N=[N+]=[N-])c2ccccc21`, the TGI in the assay on MCF7 breast, with NCI/ADR-RES ovarian, in the assay on HCT-116 colon, in the assay with OVCAR-3 ovarian, in the assay on HOP-62 NSCLC and in the assay on SN12C renal was greater than 100 µM each time. Also, the values for the TGI in the assay on HT29 colon, with SK-MEL-28 melanoma and with OVCAR-8 ovarian were 49.9 µM, greater than 100 µM and greater than 100 µM, respectively.
As for `CC1(C)N=C(N)N=C(N)N1c1ccc(CCc2ccccc2)cc1`, the TGI is greater than 76.7 µM in the assay with MCF7 breast; greater than 100 µM with NCI/ADR-RES ovarian; greater than 100 µM in the assay on HCT-116 colon; greater than 80.6 µM in the assay on OVCAR-3 ovarian; greater than 78.1 µM in the assay with SN12C renal; greater than 100 µM in the assay with LOX IMVI melanoma. Also, the figures for the TGI with HT29 colon, in the assay with SK-MEL-28 melanoma and with OVCAR-8 ovarian were greater than 100 µM, greater than 86.7 µM and greater than 100 µM, respectively.
For the molecule `CCC(/C=C/C1OC(=O)C=CC1C)=C\C(C)C/C=C/C(C)=C/C(C)C(=O)C(C)C(O)C(C)C/C(C)=C/C(=O)O` (centres undefined), the GI50 in the assay with MCF7 breast is less than 1 pM; in the assay with NCI/ADR-RES ovarian it was 0.701 µM; in the assay on HCT-116 colon it was less than 1 pM; in the assay with OVCAR-3 ovarian it was 0.0145 nM; in the assay with HOP-62 NSCLC it was 0.0236 nM; in the assay with SN12C renal, 0.0696 nM. For the same molecule, the GI50 in the assay on HT29 colon was 4.95 µM; in the assay on SK-MEL-28 melanoma, 4.51 pM; with OVCAR-8 ovarian it was 1.54 pM. The TGI in the assay on NCI/ADR-RES ovarian came to 4.15 µM; with SN12C renal it was 12 µM; in the assay on LOX IMVI melanoma, 0.00119 µM; in the assay with HT29 colon it was 13 µM; in the assay with OVCAR-8 ovarian, 9.77 µM.
Take `COc1ccc2cc(/C=N/NC(=O)Nc3ccccc3)ccc2c1`: the TGI in the assay on MCF7 breast, with NCI/ADR-RES ovarian, with HCT-116 colon, in the assay on OVCAR-3 ovarian, in the assay on HOP-62 NSCLC and in the assay on SN12C renal was greater than 100 µM in each case. The TGI with LOX IMVI melanoma, with HT29 colon and with OVCAR-8 ovarian was greater than 100 µM in each case.
On to `C[C@H](CCC(=O)O)[C@H]1CC[C@H]2[C@@H]3CC[C@@H]4C[C@H](O)CC[C@]4(C)[C@H]3C[C@H](O)[C@]12C`, for which the TGI in the assay with MCF7 breast was greater than 100 µM; with NCI/ADR-RES ovarian, greater than 100 µM; with HCT-116 colon it was greater than 100 µM; with OVCAR-3 ovarian it was 52.1 µM; with HOP-62 NSCLC, 78.6 µM; with SN12C renal, greater than 100 µM. For the same molecule, the TGI with LOX IMVI melanoma, in the assay with HT29 colon, with SK-MEL-28 melanoma and in the assay with OVCAR-8 ovarian was greater than 100 µM each time.
On to `CC1(CCOCc2ccccc2)NC(=O)NC1=O` (centres undefined), for which the TGI in the assay on NCI/ADR-RES ovarian, with HCT-116 colon, in the assay with OVCAR-3 ovarian, with HOP-62 NSCLC, with SN12C renal and in the assay on LOX IMVI melanoma was greater than 100 µM each time. Besides, the TGI in the assay with HT29 colon, in the assay on SK-MEL-28 melanoma and in the assay on OVCAR-8 ovarian was greater than 100 µM throughout.
As for `Cc1[nH]nc(C(F)(F)F)c1N=NN1CCOCC1`, the TGI in the assay with MCF7 breast is 21 µM; in the assay on NCI/ADR-RES ovarian, 22.1 µM; with HCT-116 colon, 6.12 µM; with OVCAR-3 ovarian, 23 µM; in the assay on HOP-62 NSCLC, 28.5 µM; with SN12C renal, 30.8 µM. The TGI with LOX IMVI melanoma turned out to be 18.3 µM; with HT29 colon it was 16.8 µM; with SK-MEL-28 melanoma it was 32.7 µM; with OVCAR-8 ovarian it was 13.7 µM.
With `c1ccc(CCNc2ccccn2)nc1`, the TGI in the assay on MCF7 breast, in the assay with NCI/ADR-RES ovarian, in the assay with HCT-116 colon, with OVCAR-3 ovarian, in the assay on HOP-62 NSCLC and with SN12C renal was greater than 100 µM throughout. The TGI in the assay with LOX IMVI melanoma, in the assay with HT29 colon, in the assay with SK-MEL-28 melanoma and in the assay on OVCAR-8 ovarian was greater than 100 µM throughout.
Regarding `CC(OC(C)(C)C)[C@H](NC(=O)OCC(Cl)(Cl)Cl)C(=O)O` (some centres undefined), the TGI in the assay with HCT-116 colon, with OVCAR-3 ovarian, in the assay with HOP-62 NSCLC, with SN12C renal, with HT29 colon and in the assay with SK-MEL-28 melanoma was greater than 100 µM in each case. Further, the TGI in the assay with OVCAR-8 ovarian is greater than 100 µM.

The record behind these values is PubChem BioAssay (NCI).
